What was measured:
[1] = Rotating disk electrode study with Levich analysis; assay type: physicochemical; conditions: 5 mM in 1 M KOH, Levich plot
Protocol: Glassy carbon was used as the working electrode for all three-electrode CV tests. RDE experiments were conducted using a Pine Instruments Modulated Speed Rotator AFMSRCE equipped with a 5 mm diameter glassy carbon working electrode, a Ag/AgCl reference electrode (BASi, pre-soaked in 3 M NaCl solution), and a graphite counter electrode. The electrode was rotated at a specific speed while the voltage was linearly swept from −0.4 to −0.11 V vs. Ag/AgCl (FIG. 4A). […]. RDE experiments were conducted using a Pine Instruments Modulated Speed Rotator AFMSRCE equipped with a 5 mm diameter glassy carbon working electrode, a Ag/AgCl reference electrode (BASi, pre-soaked in a 3 M KCl solution), and a graphite counter electrode. […]

[2] = Full cell cycling against potassium ferro/ferricyanide posolyte; conditions: from NMR and CV detection limits, full cell cycled 11 days
Protocol: Full cell cycling (i.e. with a ferro/ferricyanide-based posolyte) was performed with the same flow cell hardware but with a FUMASEP® E-620(K) membrane due to its high conductivity and low permeability of DBEAQ and ferricyanide compared to other membranes. For studies at pH 14, the posolyte volume was 30 mL, and its composition, when assembled, was 0.20 M potassium ferrocyanide, 0.08 M potassium ferricyanide, and 1 M KOH. The negolyte was prepared by dissolving 0.1 M 2,6-DBEAQ in its oxidized form in 1.2 M KOH solution, resulting in 0.1 M 2,6-DBEAQ, 1.2 M K+, and 1 M OH^− electrolyte solution. For studies at pH 12, both electrolytes comprised 10 mM OH^−; the pH was checked both with a pH meter and pH paper and adjusted where necessary. For all full cell studies, the negolyte was assembled in the fully discharged state. Galvanostatic cycling was performed at ±0.1 A/cm^2 at room temperature, with voltage limits of 0.6 and 1.4 V. To obtain the polarization curves, the cell was first charged to the desired state of charge and then polarized via linear sweep voltammetry at a rate of 100 mV/s. […] Electrochemical impedance spectroscopy (EIS) was performed at SOCs between 10 and 100% at open-circuit potential with a 10 mV perturbation and with frequency ranging from 1 to 300,000 Hz. […]

## O=C([O-])CCCOc1ccc2c(c1)C(=O)c1ccc(OCCCC(=O)[O-])cc1C2=O.[K+].[K+] [2,6-DBEAQ, 4,4′-((9,10-anthraquinone-2,6-diyl)dioxy)dibutyric acid]
[1]
  diffusion coefficient for the oxidized form: 1.58×10^−6 cm^2/s
[2]
  upper limit of capacity fade rate caused by decomposition and/or membrane crossover: ≤ 0.01 %/day

From patent publication US11724980B2, “Quinones having high capacity retention for use as electrolytes in aqueous redox flow batteries” (President and Fellows of Harvard College, priority 2018, dated 2023)
